Consider two compounds from patent publication US11192849B2, “Compounds, compositions, and methods for modulating ferroptosis and treating excitotoxic disorders” (THE TRUSTEES OF COLUMBIA UNIVERSITY IN THE CITY OF NEW YORK, priority 2013, dated 2021).

The nature of data set [1]: In vitro stability study in mouse plasma. The format is in vitro ADME. As to the method:
The assay was conducted by incubating 1 μM of test compounds with Mouse Plasma (Strain […]) for a series of incubation times (0, 15, 30, 60, 120 minutes) at various temperatures (wet ice, room temperature, or 37° C.) with 5% CO2 and shaking (130 rpm). At each time point, the samples were quenched with 200 μL of stop solution containing an internal standard and kept on ice. The samples were analysed by LC-MS/MS.

Data set [2] has as its system rat corticostriatal brain slices, medium spiny neurons. Put plainly: Brain slice assay for HD (httN90Q73-transfected corticostriatal slices). The data set is classed as cell-based. To be noted: for number of healthy medium spiny neurons (MSNs): 10 nM, 100 nM and 1 μM, four days. On the procedure:
250 μm corticostriatal brain slices were prepared from postnatal day 10 CD Sprague-Dawley rat pups (Charles River) as previously described (Hoffstrom et al., 2010). Brain slice explants were placed in interface culture in 6-well plates using culture medium containing 15% heat-inactivated horse serum, 10 mM KCl, 10 mM HEPES, 100 U/ml penicillin/streptomycin, 1 mM MEM sodium pyruvate, and 1 mM L-glutamine in Neurobasal A (Invitrogen) and maintained in humidified incubators under 5% CO2 at 32 deg. C. A custom-modified biolistic device (Helios Gene Gun; Bio-Rad) was used to transfect the brain slices with a human htt exon-1 expression construct containing a 73 CAG repeat (“HttN90Q73”) in the gWiz backbone (Genlantis) together with a YFP expression construct to visualize transfected neurons. Control brain slices were transfected with gWiz blank vector and YFP at the equivalent DNA amounts. After 4 days of incubation, MSNs were identified by their location within the striatum and by their characteristic dendritic morphology and scored as healthy if expressing bright and continuous YFP labeling throughout, normal-sized cell bodies, and >2 primary dendrites >2 cell bodies long, as previously described^21. Data were expressed as mean numbers of healthy MSNs per striatal region in each brain slice, with statistical significance tested by ANOVA followed by Dunnett's post hoc comparison test at the 0.05 confidence level. […]
Fer-1 attenuates lipid peroxidation and ferroptosis in cancer cells treated with small molecules that block cystine import or glutathione production, as well as cell death in rat organotypic hippocampal brain slices treated with toxic concentrations of glutamate, which also blocks cystine import (Dixon, et al., 2012). […] Four days later, the number of healthy medium spiny neurons (MSNs) was quantified, as previously described (Varma, et al., 2011, Hoffstrom, et al., 2010).

For data set [3], the system named is HT-1080 cells. Put plainly: Mitochondrial cardiolipin peroxidation (10-N-nonylacridine orange) in HT-1080 cells. The format is cell-based, human. To be noted: STS 100 nM, NAO probe. As to the method: 200,000 HT-1080 cells were seeded into 6-well dishes (Corning). […] For the analysis of mitochondrial ROS, cells were incubated with 5 μM MitoSOX (Molecular Probes/Invitrogen) in HBSS for 10 minutes in the dark at 37° C. For the analysis of mitochondrial cardiolipin peroxidation, cells were incubated with NAO dissolved to a final concentration of 25 ng/mL in HBSS for 10 minutes in the dark at 37° C. Cells were then washed once in HBSS and measurements were subsequently acquired using an flow cytometer (BD/Accuri C6) equipped with a 488 nm laser for excitation of fluorophores. MitoSOX data were collected in the FL2 channel and NAO data was collected in the FL1 channel. Data are from three independent biological replicates of each experiment. Data were analyzed by one-way ANOVA with Bonferroni's post-hoc test.

Data set [4] is described as follows: 2,2-Diphenyl-1-picrylhydrazyl (DPPH) cell-free antioxidant assay. The data set is classed as biochemical. To be noted: test compound 0.05 mM, 30 minutes. As to the method:
The stable radical DPPH (Blois, 1958) was dissolved in methanol to a final working concentration of 0.05 mM. This was prepared as follows. First, a 100× stock concentration (5 mM) was prepared by dissolving 3.9 mg DPPH in 2 mL methanol. Then, for 25 mL of 0.05 mM final working solution, 250 μL of the 5 mM solution was added to 24.75 mL of methanol. 1 mL of DPPH solution was added to a small volume (<5 μL) each test compound dissolved in DMSO. The final concentration of each test compound was 0.05 mM. Samples were inverted several times and allowed to incubate at room temperature for 30 minutes. Samples were then aliquoted to white 96-well solid-bottom dishes (Corning) and absorbance at 517 nm was recorded using a TECAN M200 plate reader. All values were normalized to background (methanol only). The experiment was repeated three times and the data was averaged.
In parallel with the above cell-based assay, a 2,2-diphenyl-1-picrylhydrazyl (DPPH) assay was used to examine the ability of each analog to scavenge free radicals in a cell-free in vitro solution—a test of intrinsic antioxidant capacity. […] Redox active analogs scavenged the DPPH radical by 60-90% within 30 minutes (FIG. 18a).

The test system of data set [5] is HT-1080 cells. Put plainly: HT-1080 cell proliferation (Vi-Cell). The format is cell-based, human. The conditions noted are these: over 48 hours. As to the method: Cell viability was typically assessed in 384-well format by Alamar Blue (Invitrogen) fluorescence (ex/em 530/590) measured on a Victor3 platereader (Perkin Elmer, Waltham, Mass.). In some experiments, Trypan Blue dye exclusion counting was performed using an automated cell counter (ViCell, Beckman-Coulter Inc., Brea, Calif.). Cell viability in test conditions is reported as a percentage relative to the negative control treatment.

In the case of `CCOC(=O)c1ccc(NC2CCCCC2)c(N)c1` [SRS8-28 (Fer-1), ethyl 3-amino-4-(cyclohexylamino)benzoate], the “mouse plasma stability” value in data set [1] was “poor plasma stability”. The “number of healthy medium spiny neurons (MSNs)” value in data set [2] is listed as “significant increase in the number of healthy MSNs”. For the same compound, in data set [2] (1 μM), the “number of healthy MSNs versus controls” value is “statistically indistinguishable from both the YFP (no htt) control and the control inhibitor combination”. In the data set with HT-1080 cells [3], the “mitochondrial cardiolipin oxidation in response to staurosporine” value was “did not prevent”. Also, the “intrinsic antioxidant capability in the DPPH assay” value in data set [4] is “readily oxidized the stable radical”. Moreover, the HT-1080 cell proliferation entry in the data set with HT-1080 cells [5] is recorded as “did not inhibit ERK phosphorylation or arrest the proliferation of HT-1080 cells”.

In the case of `CCOC(=O)c1ccc(NC2CCCCC2)c(NCc2ccccc2)c1` [SRS11-92, ethyl 3-(benzylamino)-4-(cyclohexylamino)benzoate], the “number of healthy medium spiny neurons (MSNs)” value in data set [2] was “significant increase in the number of healthy MSNs”.
